Assay results: PubChem BioAssay (NCI)
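Cells were grown in 96-well plates and exposed to each compound for 48 hours at five concentrations; endpoints were interpolated linearly between bracketing concentrations, or set to the highest concentration if not reached. At the GI50, growth is halved. TGI is the concentration that stops growth completely.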

Key:
Assay in all cases: growth of human tumour cells (NCI), 48 h
SK-MEL-28 melanoma = tested on: SK-MEL-28 melanoma
LOX IMVI melanoma = tested on: LOX IMVI melanoma
SF-268 CNS = tested on: SF-268 CNS
A549 NSCLC = tested on: A549 NSCLC
EKVX NSCLC = tested on: EKVX NSCLC
OVCAR-3 ovarian = tested on: OVCAR-3 ovarian
NCI-H23 lung = tested on: NCI-H23 lung
OVCAR-5 ovarian = tested on: OVCAR-5 ovarian
HL-60(TB) leukemia = tested on: HL-60(TB) leukemia
MALME-3M melanoma = tested on: MALME-3M melanoma
SNB-19 CNS = tested on: SNB-19 CNS
NCI-H522 lung = tested on: NCI-H522 lung

SMILES	TGI (SK-MEL-28 melanoma)	TGI (LOX IMVI melanoma)	TGI (SF-268 CNS)	TGI (A549 NSCLC)	TGI (EKVX NSCLC)	TGI (OVCAR-3 ovarian)	TGI (NCI-H23 lung)	TGI (OVCAR-5 ovarian)	TGI (HL-60(TB) leukemia)	TGI (MALME-3M melanoma)	TGI (SNB-19 CNS)	GI50 (SF-268 CNS)	GI50 (A549 NSCLC)	GI50 (EKVX NSCLC)	GI50 (OVCAR-3 ovarian)	GI50 (OVCAR-5 ovarian)	GI50 (HL-60(TB) leukemia)	GI50 (MALME-3M melanoma)	TGI (NCI-H522 lung)
CCCCCCCCCCCCCCCC(=O)OCC1CCCN2CCCCC12 (stereo unspecified)	> 100 µM	> 100 µM	> 100 µM	> 100 µM	> 100 µM	> 100 µM	> 100 µM	> 100 µM	> 100 µM	> 100 µM	> 100 µM								
CC[C@H](Nc1nc(N)nc(C)c1C#N)c1nc2cccc(NCc3ccc(C(=O)NO)cc3)c2c(=O)n1-c1ccccc1			3.19 µM	5.43 µM	6.84 µM	3.26 µM		4.01 µM	> 100 µM	4.13 µM		1.33 µM	2.35 µM	2.1 µM	1.2 µM	1.49 µM	3.04 µM	1.63 µM	
CCOC(=O)Nc1cc2c(c(N)n1)N=C(c1ccccc1)[C@H](C)N2		17.7 µM	> 100 µM	> 100 µM	> 100 µM	0.016 µM	0.0464 µM	53.9 µM	< 0.0001 µM	16.4 µM	87.5 µM								< 0.0001 µM
O=C(N/C(=C\c1cccc([N+](=O)[O-])c1)c1nc2[nH]c(=S)[nH]c(=O)c2[nH]1)c1ccccc1	> 100 µM	> 100 µM	> 100 µM	> 100 µM	> 100 µM	> 100 µM	> 100 µM	> 100 µM	> 100 µM	> 100 µM	> 100 µM								> 100 µM
C/C(=N\Oc1cc(Cl)ncn1)c1ccccn1	> 100 µM	> 100 µM	> 100 µM	> 100 µM	> 100 µM	> 100 µM	92.7 µM	> 100 µM		> 100 µM	> 100 µM								39.4 µM
NC(=S)Nc1cc(Cl)ccc1Cl	> 100 µM	> 100 µM	> 100 µM	> 100 µM	> 100 µM	> 100 µM	> 100 µM	> 100 µM	> 100 µM	> 100 µM	> 100 µM								> 100 µM
CC(=O)OC/C=C/Cn1ncc(=O)[nH]c1=O	> 100 µM	> 100 µM	> 100 µM	> 100 µM	> 100 µM	> 100 µM		> 100 µM	> 100 µM	> 100 µM	> 100 µM								> 100 µM
CC(C)OC(=O)C1=C(O)c2ccccc2S(=O)(=O)N1	> 100 µM	> 100 µM	> 100 µM	> 100 µM	> 100 µM	> 100 µM	> 100 µM	> 100 µM		> 100 µM	> 100 µM								> 100 µM
O=C(CCl)NC(Cc1ccc(F)cc1)C(=O)O (stereo unspecified)	> 100 µM	> 100 µM	> 100 µM	> 100 µM	> 100 µM	> 100 µM	> 100 µM	> 100 µM	> 100 µM	> 100 µM	> 100 µM								> 100 µM
CCOC(=O)[C@H]1Nc2c(cccc2[N+](=O)[O-])[C@H]2OCC[C@@H]12	> 100 µM	> 100 µM	> 100 µM	> 100 µM	> 100 µM	> 100 µM	> 100 µM	> 100 µM		> 100 µM	> 100 µM								> 100 µM
